Reference: patent publication US20240285808A1, “MOLECULAR PROBES FOR IN VIVO DETECTION OF ALDEHYDES” (The General Hospital Corporation, priority 2021, published 2024)
Read-outs that look alike come from different tables or passages of the source.

Legend:
[1] = Affinity measurements of Gd^3+ complex with butyraldehyde (HPLC-ICP-MS); type: physicochemical
Method: FIG. 43A. […] FIG. 43B. Affinity measurements of Gd^3+ complex with butyraldehyde. Concentration-dependent binding of the probes to butyraldehyde as determined by HPLC-ICP-MS (pH 7.4 in PBS, 12 h).

[2] = Elimination and retention of gadolinium in normal mice; type: in vivo, mouse; details: for route of elimination (dynamic whole-body MRI): 100 μmol/kg i.v.; for Gadolinium content, Sum, % ID per Organ / Gadolinium content, Bone, % ID per Gram / Gadolinium content, Bone, % ID per Organ / Gadolinium content, Brain, % ID per Gram / Gadolinium content, Brain, % ID per Organ / Gadolinium content, Heart, % ID per Gram / Gadolinium content, Heart, % ID per Organ / Gadolinium content, Kidneys, % ID per Gram / Gadolinium content, Kidneys, % ID per Organ / Gadolinium content, Liver, % ID per Gram / Gadolinium content, Liver, % ID per Organ / Gadolinium content, Lung, % ID per Gram / Gadolinium content, Lung, % ID per Organ / Gadolinium content, Muscle, % ID per Gram / Gadolinium content, Muscle, % ID per Organ / Gadolinium content, Serum, % ID per Gram / Gadolinium content, Serum, % ID per Organ / Gadolinium content, Spleen, % ID per Gram / Gadolinium content, Spleen, % ID per Organ / Gadolinium content, Stomach, % ID per Gram / Gadolinium content, Stomach, % ID per Organ: 24 h after injection, 100 μmol/kg; for Gadolinium content, Bone, % ID per Gram / Gadolinium content, Bone, % ID per Organ / Gadolinium content, Brain, % ID per Gram / Gadolinium content, Brain, % ID per Organ / Gadolinium content, Heart, % ID per Gram / Gadolinium content, Heart, % ID per Organ / Gadolinium content, Kidneys, % ID per Gram / Gadolinium content, Kidneys, % ID per Organ / Gadolinium content, Liver, % ID per Gram / Gadolinium content, Liver, % ID per Organ / Gadolinium content, Lung, % ID per Gram / Gadolinium content, Lung, % ID per Organ / Gadolinium content, Muscle, % ID per Gram / Gadolinium content, Muscle, % ID per Organ / Gadolinium content, Serum, % ID per Gram / Gadolinium content, Serum, % ID per Organ / Gadolinium content, Spleen, % ID per Gram / Gadolinium content, Spleen, % ID per Organ / Gadolinium content, Stomach, % ID per Gram / Gadolinium content, Stomach, % ID per Organ: n = 4
Method: FIG. 55. […] The liver enhances slightly with first-blood pass but the signal rapidly returns to baseline after 20 min.
At 24 h post-injection (p.i.), >99% of the injected dose of gadolinium was eliminated from the body (Table B).

[3] = system: myocardium of SAMP8/SAMR1 mice with TAC; details: 20 min post injection
Text: (§1) Combined Heart and Lung Fibrosis Model:
(§2) Left ventricular dysfunction with pulmonary hypertension was induced by left thoracotomy transverse aortic constriction surgery (TAC) in 6-month-old senescence-accelerated-prone/resistant mice (SAMP8/SAMR1), which is a well-established model of pressure overload-induced cardiac hypertrophy that can induce heart and lung fibrosis. The transverse aorta was encircled with 7-0 nylon suture and tied tightly around a pre-sterilized, blunt-end of a 27-gauge needle. After securing the knot, the needle was removed, and aortic flow resumed. Another two groups of SAMP8 and SAMR1 mice received sham surgery as control. 3-weeks post-surgery, mice were anesthetized with isoflurane (1.5%) and imaged at a 4.7 Tesla Bruker MRI scanner.
(§3) For combined heart and lung imaging, a series of baseline images (2D T1 weighted FLASH for heart and 3D-UTE for lung) were first acquired. 2D T1 weighted FLASH: repetition time/echo time=18.24/3.54 ms; flip angle, 50°; field of view, 36×36 mm^2; matrix size, 138×138 mm^2; slice thickness, 1 mm; acquisition time, 3 minutes 50 seconds. 3D-UTE: repetition time/echo time=4/0.01225 ms; flip angle, 16°; field of view, 32×32 mm^2; matrix size, 128×128 mm^2; slice thickness, 0.25 mm; acquisition time, 3 minutes 36 seconds. Then a bolus of Gd-9 complex was administered i.v. and imaging performed for a period of 40 min p.i. with the repetition acquisition of 2D T1 weighted FLASH and 3D-UTE sequences. Following the imaging session, animals were sacrificed and heart and lung tissue was subjected to histopathologic analysis.
For heart imaging analysis, FLASH image pre-contrast and immediately post-contrast were used to define regions of interest (ROIs) in the myocardium that excluded blood vessels. The percentage of signal intensity change (% SI) was calculated by comparing the SI measured after probe injection to SI measured prior to probe injection.

[4] = system: lung of SAMP8/SAMR1 mice with TAC; assay: MR imaging of lung in transverse aortic constriction (TAC) model; type: in vivo, mouse; details: 20 min post injection
Text: as §1, §2, §3
For lung imaging analysis, RARE image, FLASH image pre-contrast and immediately post-contrast were used to define regions of interest (ROIs) in the lung that excluded vessels and airways. A total of 6 lung ROIs were defined on axial UTE images to obtain signal intensity (SI); ROIs in the dorsal muscle in each slice were also defined as reference; ROIs in the field of view without any tissue (air) were used to measure the variation in background signal. Then the lung-to muscle ratio (LMR) or contrast to noise ratio (CNR) was averaged from the 6 slices to calculate changes in LMR (ΔLMR) or CNR (ΔCNR) at each time point.

liver of BDL rats = assay: LA-ICP-MS gadolinium imaging of rat liver after Gd-9 MRI; type: in vivo; details: BDL rat liver harvested 30 min p.i.
Method: LA-ICP-MS Gadolinium Imaging Analysis
Sample preparation. Harvested rat livers after MR imaging were immediately snapfrozen in OCT using liquid nitrogen, sectioned into 10-μm-thick slices, stored in −80° C. One slice was assessed by LA-ICP-MS directly. One adjacent slide was incubated with 0.1 mM Gd-9 at 37° C. for 2 h, followed with 0.2 mM NaBH3CN for 2 h and washed with PBS (3×10 min). Another adjacent slide was incubated with 0.1 mM Gd-9 and 10 mM hydrazine at 37° C. for 2 h, followed with 0.2 mM NaBH3CN for 2 hand washed with PBS (3×10 min). Similar procedures were carried out for human tissues. Slides were incubated with 0.1 mM Gd-9 at 37° C. for 2h, followed with 0.2 mM NaBH3CN for 2 h and washed with PBS (3×10 min).
Gadolinium mapping. Elemental images were collected from sections of liver tissue via laser ablation inductively coupled plasma mass spectrometry at the Biomedical National Elemental Imaging Resource (BNEIR). The instrumentation used was a New Wave Research 213 nm laser ablation system with a 10 cm^2 sample chamber, interfaced with an Agilent 7900 ICP-MS system. Samples were ablated in no-gas mode, with helium as a carrier gas at a flow rate of 600 L min^−1. […] Elemental imaging data was quantified using metal-doped gelatin standards prepared at BNEIR and National Institute of Standards and Technology (NIST) certified references material 1515 (apple leaves). […]

Row | Structure (SMILES) | fold improved affinity over Gd-11 and Gd-CHyd [1] [fold] | route of elimination (dynamic whole-body MRI) [2] | Gadolinium content, Sum, % ID per Organ [2] [% ID per Organ] | Gadolinium content, Bone, % ID per Gram [2] [% ID per Gram] | Gadolinium content, Bone, % ID per Organ [2] [% ID per Organ] | Gadolinium content, Brain, % ID per Gram [2] [% ID per Gram] | Gadolinium content, Brain, % ID per Organ [2] [% ID per Organ] | Gadolinium content, Heart, % ID per Gram [2] [% ID per Gram] | Gadolinium content, Heart, % ID per Organ [2] [% ID per Organ] | Gadolinium content, Kidneys, % ID per Gram [2] [% ID per Gram] | Gadolinium content, Kidneys, % ID per Organ [2] [% ID per Organ] | Gadolinium content, Liver, % ID per Gram [2] [% ID per Gram] | Gadolinium content, Liver, % ID per Organ [2] [% ID per Organ] | Gadolinium content, Lung, % ID per Gram [2] [% ID per Gram] | Gadolinium content, Lung, % ID per Organ [2] [% ID per Organ] | Gadolinium content, Muscle, % ID per Gram [2] [% ID per Gram] | Gadolinium content, Muscle, % ID per Organ [2] [% ID per Organ] | Gadolinium content, Serum, % ID per Gram [2] [% ID per Gram] | Gadolinium content, Serum, % ID per Organ [2] [% ID per Organ] | Gadolinium content, Spleen, % ID per Gram [2] [% ID per Gram] | other results
1 | NN1CCN(C(=O)CCC(C(=O)[O-])N2CCN(CC(=O)[O-])CCN(C(CCC(=O)N3CCN(N)CC3)C(=O)[O-])CCN(CC(=O)[O-])CC2)CC1.[Gd+3] (stereo not drawn) [Gd-10, trans-1,7-Gd-(CHyd)2] | 2 | eliminated exclusively via the kidneys into the bladder | 0.584 | 0.0180 ± 0.00486 | 0.0469 ± 0.0126 | 0.00206 ± 0.000288 | 0.000776 ± 0.000169 | 0.0219 ± 0.00212 | 0.00203 ± 0.000132 | 1.45 ± 0.262 | 0.365 ± 0.0315 | 0.105 ± 0.00715 | 0.0572 ± 0.0426 | 0.157 ± 0.00422 | 0.0197 ± 0.00107 | 0.00886 ± 0.000914 | 0.0709 ± 0.0073 | 0.00169 ± 0.000259 | 0.00398 ± 0.000175 | 0.165 ± 0.0817 | Gadolinium content, Spleen, % ID per Organ [2]: 0.0086 ± 0.00085 % ID per Organ; Gadolinium content, Stomach, % ID per Gram [2]: 0.0414 ± 0.02775 % ID per Gram; Gadolinium content, Stomach, % ID per Organ [2]: 0.00869 ± 0.00207 % ID per Organ
2 | NN1CCN(C(=O)CCC(C(=O)[O-])N2CCN(CC(=O)[O-])CCN(CC(=O)[O-])CCN(C(CCC(=O)N3CCN(N)CC3)C(=O)[O-])CC2)CC1.[Gd+3] (stereo not drawn) [Gd-9, cis-1,4-Gd-(CHyd)2] | 2 | eliminated exclusively via the kidneys into the bladder | 0.625 | 0.0144 ± 0.0125 | 0.0455 ± 0.0174 | 0.00336 ± 0.00277 | 0.0013 ± 0.00125 | 0.0788 ± 0.0151 | 0.00708 ± 0.000802 | 1.33 ± 0.152 | 0.377 ± 0.0103 | 0.0686 ± 0.0102 | 0.0341 ± 0.0250 | 0.166 ± 0.100 | 0.0289 ± 0.00394 | 0.0132 ± 0.00294 | 0.105 ± 0.0225 | 0.00138 ± 0.000861 | 0.00376 ± 0.00113 | 0.140 ± 0.0558 | % SI change of myocardium ([3]; SAMP1-Sham): 7.8 ± 4.7%; % SI change of myocardium ([3]; SAMP1-TAC): 21.5 ± 8.4%; % SI change of myocardium ([3]; SAMP8-Sham): 8.2 ± 5.3%; % SI change of myocardium ([3]; SAMP8-TAC): 22 ± 7.9%; Gadolinium content, Spleen, % ID per Organ [2]: 0.00618 ± 0.000767 % ID per Organ; Gadolinium content, Stomach, % ID per Gram [2]: 0.114 ± 0.0288 % ID per Gram; Gadolinium content, Stomach, % ID per Organ [2]: 0.0157 ± 0.00274 % ID per Organ; ΔCNR of lung ([4]; SAMP1-TAC): 1.2 ± 0.3; ΔCNR of lung ([4]; SAMP8-Sham): 0.8 ± 0.5; ΔCNR of lung ([4]; SAMP8-TAC): 3.1 ± 0.9; ΔCNR of lung ([4]; Sham): 0.4 ± 0.2; Gd accumulation in fibrotic septa (LA-ICP-MS) (liver of BDL rats): ~50 ppm
